US20260364184A1, “COMPOUND BASED ON OXOISOINDOLINYL-SUBSTITUTED TETRAHYDROPYRIMIDINE-DIONE AND USE THEREOF” (GLUETACS THERAPEUTICS (SHANGHAI) CO., LTD., priority 2023, published 2026)

Legend:
[1] = system: Human neuroblastoma cell line (SK-N-AS); experiment: Inhibition of SK-N-AS cell proliferation (CellTiter luminescent viability); type: cell-based; conditions: Table II2, EZH2 inhibitor-based, 96 hours
Description: (§1) The tumor cells used herein were cultured in a cell culture medium listed in table 3 at 37 °C in an incubator with 5% CO2. Prior to experimentation, all cell lines used were correctly identified by STR profiling, and tested negative for mycoplasma contamination using a mycoplasma detection kit through routine screenings.
(§2) The IC50 values of the compounds of the present disclosure (including the compounds in Table 1, Table 2, and Examples 1-468) were determined using the CellTiter-Meiluncell Luminescent Cell Viability Assay Kit from Dalian Meilun Biotech Co., Ltd. The detailed procedure is as follows: Tumor cells were seeded in 96-well cell culture plates at the densities specified in Table 4. On the following day, the test compounds of the present disclosure were subjected to serial dilution. The dilution can be performed according to one of the following two methods: • (1) The first dilution method: The test compounds of the present disclosure (including the compounds in Table 1, Table 2, and Examples 1-468) were subjected to 5-fold serial dilutions starting from a highest concentration of 2000 μM, resulting in a total of 9 concentrations from high to low (2000, 400, 80, 16, 3.2, 0.64, 0.128, 0.0256, 0.00512 μM). Subsequently, 0.5 μL of the test compound dilution was transferred into the 96-well plate containing the cells, with each well containing 100 μL of cell culture medium. […] Into the 96-well plate, the diluted test compounds and corresponding detection reagents were added, resulting in final test compound concentrations of 500 nM and 10 nM, respectively. The experimental procedure is described below using the diluted 2 μM test compound as an example.
(§3) 0.5 μL of the aforementioned diluted compound of the present disclosure (including the compounds in Table 1, Table 2, and Examples 1-468) was added to the seeded cells in 100 μL of medium, yielding a final test compound concentration of 10 nM. After the cells were treated with the compounds of the present disclosure for a specified period, the cell viability assay reagent was added to the culture medium according to the kit's instructions to determine cell viability. […] All controls were treated using the same procedure as the compounds of the present disclosure. The growth inhibition curves for the compounds of the present disclosure were plotted using Prism GraphPad software, and the IC50 values were calculated therefrom.

[2] = system: Human malignant melanoma cell line (A375); experiment: Inhibition of A375 cell proliferation (CellTiter luminescent viability); conditions: A-375, Table III (II1), EZH2 inhibitor-based, 96 hours
Description: as §1, §2, §3

AKT = experiment: Western blot degradation of AKT; type: cell-based; conditions: hPBMC Cell; 24 hours
Description: Conventional Western blot assay was performed to evaluate the effects of the compounds of the present disclosure on the expression of target proteins in cells.
(1) Cell Seeding and Protein Harvesting: The selected cells were processed according to the cell seeding procedure and protein harvesting procedure in Table II-2.
(2) To the collected supernatant, 5×SDS sample loading buffer was added, followed by denaturation at 95 °C for 5 minutes. The denatured samples were then separated by SDS-PAGE electrophoresis on a polyacrylamide gel. Proteins were transferred to a nitrocellulose membrane (0.45 μm NC membrane), blocked with blocking buffer at room temperature for 1 hour, and subjected to antibody incubation and development procedures according to the antibody manufacturer's instructions (Cell Signaling Technology).
Half-Maximal Degradation Concentration value (the drug concentration required for degrading proteins by 50%, abbreviated as DC50) reads method: comparing the grayscale values of Western blot bands from drug-treated samples with those from blank DMSO-treated controls, and identifying the drug concentration range at which the grayscale value is half that of the DMSO-treated control bands.
DC50 values can be calculated using ImageJ software to measure grayscale values of Western blot bands from drug-treated samples. The concentration-response curve is fitted to estimate the drug concentration corresponding to half the grayscale value.
Target protein remaining (%) refers to the percentage of target protein remaining in cells after treatment with protein degrader compounds.
Calculation method for target protein remaining (%): Use ImageJ software to measure grayscale values of Western blot bands from drug (protein degrader)-treated samples. The grayscale value of drug-treated bands is divided by that of internal control protein bands, and the resulting quotient is normalized to obtain the relative percentage of remaining target protein after protein degrader treatment.
Target protein degradation rate (%)=1−target protein remaining (%).

CCN(c1cc(-c2ccc(N3CCN(C4CCN(Cc5ccc6c(c5)C(=O)N(N5CCC(=O)NC5=O)C6=O)CC4)CC3)cc2)cc(C(=O)NCc2c(C)cc(C)[nH]c2=O)c1C)C1CCOCC1 [GT-08515, N-((4,6-dimethyl-2-oxo-1,2-dihydropyridin-3-yl)methyl)-4′-(4-(1-((2-(2,4-dioxotetrahydropyrimidin-1(2H)-yl)-1,3-dioxoisoindolin-5-yl)methyl)piperidin-4-yl)piperazin-1-yl)-5-(ethyl(tetrahydro-2H-pyran-4-yl)amino)-4-methyl-[1,1′-biphenyl]-3-carboxamide]
inhibition at 0.01 µM ([1]; 10 nM, read-out: Inhibition Rate at 10 nM (%)): 20 to 30%
inhibition at 0.5 µM ([1]; 500 nM, read-out: Inhibition Rate at 500 nM (%)): 20 to 30%
inhibition at 0.01 µM ([2]; A375, 10 nM, read-out: Inhibition Rate at 10 nM (%)): 20 to 30%
inhibition at 0.5 µM ([2]; A375, 500 nM, read-out: Inhibition Rate at 500 nM (%)): 20 to 30%

Cn1ncc(Cl)c1-c1cc(C(=O)N[C@H](CNCc2ccc3c(c2)CN(N2CCC(=O)NC2=O)C3=O)Cc2cccc(F)c2)sc1Cl [GT-08572, (S)-5-chloro-4-(4-chloro-1-methyl-1H-pyrazol-5-yl)-N-(1-(((2-(2,4-dioxotetrahydropyrimidin-1(2H)-yl)-1-oxoisoindolin-5-yl)methyl)amino)-3-(3-fluorophenyl)propan-2-yl)thiophene-2-carboxamide]
Degradation of substrate protein AKT (substrate protein remaining %) (AKT): A (0%≤substrate protein remaining %≤80%)

Nc1ncccc1-c1nc2ccc(-c3ccccc3)nc2n1-c1ccc(C2(NCc3ccc4c(c3)CN(N3CCC(=O)NC3=O)C4=O)CCC2)cc1 [GT-08573, 1-(5-(((1-(4-(2-(2-aminopyridin-3-yl)-5-phenyl-3H-imidazo[4,5-b]pyridin-3-yl)phenyl)cyclobutyl)amino)methyl)-1-oxoisoindolin-2-yl)dihydropyrimidine-2,4 (1H,3H)-dione]
Degradation of substrate protein AKT (substrate protein remaining %) (AKT): A (0%≤substrate protein remaining %≤80%)

Cn1ncc(Cl)c1-c1cc(C(=O)N[C@@H](Cc2ccc(F)c(F)c2)CN2CCN(Cc3ccc4c(c3)CN(N3CCC(=O)NC3=O)C4=O)CC2)oc1Cl [GT-08575, (S)-5-chloro-4-(4-chloro-1-methyl-1H-pyrazol-5-yl)-N-(1-(3,4-difluorophenyl)-3-(4-((2-(2,4-dioxotetrahydropyrimidin-1(2H)-yl)-1-oxoisoindolin-5-yl)methyl)piperazin-1-yl)propan-2-yl) furan-2-carboxamide]
Degradation of substrate protein AKT (substrate protein remaining %) (AKT): A (0%≤substrate protein remaining %≤80%)

Cn1ncc(Cl)c1-c1cc(C(=O)N[C@H](CNCc2ccc3c(c2)C(=O)N(N2CCC(=O)NC2=O)C3=O)Cc2cccc(F)c2)sc1Cl [GT-08577, (S)-5-chloro-4-(4-chloro-1-methyl-1H-pyrazol-5-yl)-N-(1-(((2-(2,4-dioxotetrahydropyrimidin-1(2H)-yl)-1,3-dioxoisoindolin-5-yl)methyl)amino)-3-(3-fluorophenyl)propan-2-yl)thiophene-2-carboxamide]
Degradation of substrate protein AKT (substrate protein remaining %) (AKT): A (0%≤substrate protein remaining %≤80%)

Nc1ncccc1-c1nc2ccc(-c3ccccc3)nc2n1-c1ccc(C2(NCc3ccc4c(c3)C(=O)N(N3CCC(=O)NC3=O)C4=O)CCC2)cc1 [GT-08578, 5-(((1-(4-(2-(2-aminopyridin-3-yl)-5-phenyl-3H-imidazo[4,5-b]pyridin-3-yl)phenyl)cyclobutyl)amino)methyl)-2-(2,4-dioxotetrahydropyrimidin-1(2H)-yl)isoindoline-1,3-dione]
Degradation of substrate protein AKT (substrate protein remaining %) (AKT): A (0%≤substrate protein remaining %≤80%)

Cn1ncc(Cl)c1-c1cc(C(=O)N[C@H](CNCc2ccc3c(c2)C(=O)N(N2CCC(=O)NC2=O)C3=O)Cc2ccc(F)c(F)c2)oc1Cl [GT-08579, (S)-5-chloro-4-(4-chloro-1-methyl-1H-pyrazol-5-yl)-N-(1-(3,4-difluorophenyl)-3-(((2-(2,4-dioxotetrahydropyrimidin-1(2H)-yl)-1,3-dioxoisoindolin-5-yl)methyl)amino)propan-2-yl) furan-2-carboxamide]
Degradation of substrate protein AKT (substrate protein remaining %) (AKT): A (0%≤substrate protein remaining %≤80%)

Cn1ncc(Cl)c1-c1cc(C(=O)N[C@@H](Cc2ccc(F)c(F)c2)CN2CCN(Cc3ccc4c(c3)C(=O)N(N3CCC(=O)NC3=O)C4=O)CC2)oc1Cl [GT-08580, (S)-5-chloro-4-(4-chloro-1-methyl-1H-pyrazol-5-yl)-N-(1-(3,4-difluorophenyl)-3-(4-((2-(2,4-dioxotetrahydropyrimidin-1(2H)-yl)-1,3-dioxoisoindolin-5-yl)methyl)piperazin-1-yl)propan-2-yl) furan-2-carboxamide]
Degradation of substrate protein AKT (substrate protein remaining %) (AKT): A (0%≤substrate protein remaining %≤80%)

Cn1ncc(Cl)c1-c1cc(C(=O)N[C@@H](Cc2cccc(F)c2)CN2CCN(Cc3ccc4c(c3)C(=O)N(N3CCC(=O)NC3=O)C4=O)CC2)sc1Cl [GT-08581, (S)-5-chloro-4-(4-chloro-1-methyl-1H-pyrazol-5-yl)-N-(1-(4-((2-(2,4-dioxotetrahydropyrimidin-1(2H)-yl)-1,3-dioxoisoindolin-5-yl)methyl)piperazin-1-yl)-3-(3-fluorophenyl)propan-2-yl)thiophene-2-carboxamide]
Degradation of substrate protein AKT (substrate protein remaining %) (AKT): A (0%≤substrate protein remaining %≤80%)

Cn1ncc(Cl)c1-c1cc(C(=O)N[C@H](CNCC2CCN(c3ccc4c(c3)C(=O)N(N3CCC(=O)NC3=O)C4=O)CC2)Cc2cccc(F)c2)sc1Cl [GT-08582, (S)-5-chloro-4-(4-chloro-1-methyl-1H-pyrazol-5-yl)-N-(1-(((1-(2-(2,4-dioxotetrahydropyrimidin-1(2H)-yl)-1,3-dioxoisoindolin-5-yl)piperidin-4-yl)methyl)amino)-3-(3-fluorophenyl)propan-2-yl)thiophene-2-carboxamide]
Degradation of substrate protein AKT (substrate protein remaining %) (AKT): A (0%≤substrate protein remaining %≤80%)

Nc1ncccc1-c1nc2ccc(-c3ccccc3)nc2n1-c1ccc(C2(NCC3CCN(c4ccc5c(c4)C(=O)N(N4CCC(=O)NC4=O)C5=O)CC3)CCC2)cc1 [GT-08583, 5-(4-(((1-(4-(2-(2-aminopyridin-3-yl)-5-phenyl-3H-imidazo[4,5-b]pyridin-3-yl)phenyl)cyclobutyl)amino)methyl)piperidin-1-yl)-2-(2,4-dioxotetrahydropyrimidin-1(2H)-yl)isoindoline-1,3-dione]
Degradation of substrate protein AKT (substrate protein remaining %) (AKT): A (0%≤substrate protein remaining %≤80%)

Cn1ncc(Cl)c1-c1cc(C(=O)N[C@@H](Cc2cccc(F)c2)CN2CCN(CC3CCN(c4ccc5c(c4)C(=O)N(N4CCC(=O)NC4=O)C5=O)CC3)CC2)sc1Cl [GT-08586, (S)-5-chloro-4-(4-chloro-1-methyl-1H-pyrazol-5-yl)-N-(1-(4-((1-(2-(2,4-dioxotetrahydropyrimidin-1(2H)-yl)-1,3-dioxoisoindolin-5-yl)piperidin-4-yl)methyl)piperazin-1-yl)-3-(3-fluorophenyl)propan-2-yl)thiophene-2-carboxamide]
Degradation of substrate protein AKT (substrate protein remaining %) (AKT): A (0%≤substrate protein remaining %≤80%)
